Measurements: patent US9511120B2, “Use of the angiotensin-(1-9) peptide or derivatives thereof, use of vectors overexpressing the ACE2 enzyme that produces angiotensin-(1-9) for preparing medicaments useful for preventing, reverting, inhibiting and/or reducing hypertension and/or inducing vasodilation” (PONTIFICA UNIVERSIDAD CATÓLICA DE CHILE, priority 2012, dated 2016)
Where no end group is shown, it is not given here.

Experiments:
[1] = system: hypertensive rats by clamping the renal artery (Goldblatt model); experiment: Goldblatt model (GB, 2 kidneys, 1 clip): body weight, cardiac mass, systolic blood pressure; assay type: in vivo, rat
Excerpt: (§1) Lewis normotensive rats (weight 150±10 g), which were separated randomly into the experimental hypertension model group or GB (Ocaranza et al. J. Hypertens. 20:413-20, 2002) or control group (S) were used. The latter corresponded to pseudo-operated animals. All animals were maintained under controlled conditions of light and darkness and had free access to food and water. Four weeks after surgery and at a blood pressure above 140 mmHg, GB rats were randomized for the chronic administration of angiotensin-(1-9) through an osmotic pump (602 ng kg^−1min^−1) via the jugular vein during two weeks. The animals were euthanized after 6 weeks post-surgery.
Systolic blood pressure (SBP) was measured by the tail plethysmographic method in the animals. To such end, rats were lightly anesthetized with ethyl ether. The measurement was performed once a week by researchers blind to the treatment (Ocaranza et al. J. Hypertens. 20:413-20, 2002).
The degree of cardiac hypertrophy (CH) was measured by the ratio of the cardiac mass (CM), the body mass (BM) and relative cardiac mass (RCM; [CM/BM]*100) (Ocaranza et al., J. Hypertens. 28:1054-1064, 2010).

MCP-1 mRNA = experiment: Angiotensin II infusion model: MCP-1 mRNA levels in the aortic wall; assay type: in vivo, rat
Description: (§2) Rats were subjected to the model of angiotensin II infusion (Grobe et al.: Am. J. Physiol. 292: H736-42, 2007). The animals were separated randomly into the following experimental groups: controls (Sham or pseudo-operated), infused with angiotensin II (300 ng/kg min), infused with angiotensin II and angiotensin-(1-9) (300 ng/kg min and 602 ng/kg min, respectively), and then infused with angiotensin II, angiotensin-(1-9) and the angiotensin-(1-7) receptor antagonist, A779 (300 ng/kg min, 602 ng/kg min, and 100 ng/kg min, respectively). In all cases the pumps operated at a flow of 0.5 μL/h and were implanted in the right jugular vein through a catheter fitted in an intrascapular subcutaneous pocket under anesthesia with ketamine HCl/xylazine (35 and 7 mg/kg i.p., respectively), for a period of 14 days.
(§3) The procedure described by Ocaranza et al. (Hypertension 48:572-8, 2006) was followed. Briefly, total RNA was isolated from the aorta using the trizol method and quantified by spectroscopy at 260 nm/280 nm. The cDNA was obtained by reverse transcription from 1.5 μg of total RNA treated with DNAse. […] The band intensity was quantified by densitometry and normalized to the 18S ribosomal RNA band.

rat mesenteric arteries = experiment: Contractility studies in perfused, pressurized mesenteric arteries; conditions: arteries with intact endothelium as compared to arteries without endothelium
Description: The change in diameter of rat resistance (mesenteric) arteries was determined, they were then perfused and pressurized under physiological conditions, in response to different substances, according to a methodology previously described (Gonzalez et al. Hypertension 45:853-9, 2005). Briefly, male rats (Sprague Dawley, 150-200 g) were euthanized for dissection of mesenteric vascular territory, avoiding direct manipulation of arterial or venous tissue. Mesenteric small arteries (200-300 micrometers) were isolated, surgically eliminating adventitial tissue under a zoom stereo microscope (Olympus SZ61). The arteries were perfused intraluminally into a thermoregulated bath at controlled pressure and flow, with perfusion solution (modified Krebs, KRB) of the following composition, in mmol/L: NaCl, 130; CaCl2, 2.5; NaHCO3, 25; MgSO4, 1.2; NaH2PO4, 1.2; KCl, 4.7; glucose, 5.5, pH 7.4. Before use, KRB was gassed with a mixture of 95% O2 and 5% CO2. For perfusion, the artery was cannulated with a glass micropipette (outer diameter 164μ), secured with 5-0 silk suture. The arteries were perfused with 10-20 μL/min KRB, so as to achieve transmural pressure of 60 mmHg. After a rest period of 20 minutes, each artery was incubated in the presence of a vasoconstrictor (100 μM phenylephrine) for two minutes and an endothelial NO production agonist (1 μM acetylcholine). […]

TGF-β mRNA = experiment: Angiotensin II infusion model: TGF-β mRNA levels in the aortic wall; assay type: in vivo, rat; conditions: angiotensin II-infused rats
Description: as §2, §3

ED-1 = experiment: Goldblatt model: ED-1 levels of the aortic wall (immunohistochemistry); assay type: in vivo, rat; conditions: GB rats
Excerpt: as §1
Immunostaining was performed using the streptavidin-biotin-peroxidase method with the inflammation marker ED-1. This is a glycoprotein expressed primarily in the lysosomal membrane of active macrophages (Leskovar et al. J. Exp. Biol. 203:1783-1795, 2000).
In order to block endogenous peroxidase, the samples were deparaffinized, rehydrated and treated with 10% H2O2 in methanol for 1 h. Then, the tissues were incubated with monoclonal antibody anti ED-1 (clone MCA341R, Serotec) diluted 1/1000 in 1% BSA prepared in PBS-0.05% Tween 20 overnight at 4° C. in a humid chamber. The sections were washed three times with 1×PBS-0.05% Tween 20, pH 7.4 for 5 min and incubated with the biotinylated secondary antibody for 30 min at room temperature. […]

DRVYIHPFH was tested, and the “decrease of systolic blood pressure” value ([1]; GB rats, from week 1 after the administration, maintained 2 weeks) was 15%, the CM ([1]; GB rats, two weeks treatment) was 0.37 ± 0.02 ^ g and the RCM ([1]; GB rats, two weeks treatment) was 0.84 ± 0.04 mg/g. For the same sequence, the “RCM” value ([1]; hypertensive rats vs. 400±1 in GB, not statistically significant) was 380±2, the “BW (as printed in text)” value ([1]; rats with HTN vs. untreated GB animals 0.93±0.04) was 0.84 ± 0.03 g and the “MCP-1 mRNA levels” value (MCP-1 mRNA) was “no differences”. For the same sequence, the “diameter of resistance arteries” value (rat mesenteric arteries) was “increased in a dose-dependent manner”, the “reduction of TGF-β mRNA levels” value (TGF-β mRNA) was 62.5% and the “decrease of ED-1 levels” value (ED-1) was 82%.
